In patent US20180305332A1, “Bispiperidinyl Derivatives as Liver X Receptor Beta Agonists, Compositions, and Their Use” (Merck Sharp & Dohme Corp., priority 2015, published 2018):

Key:
[1] = target: T1, GST tagged LXRbeta LBD (ligand binding domain) (Homo sapiens, UniProt P55055); assay: LanthaScreen TR-FRET Liver X Receptor Coactivator Assay, LXR beta-LBD; type: biochemical; conditions: relative to reference T0901317; for EC50: Inflection Point (potency), co-activator recruitment, read-out: LXR beta IP; for Emax: activity at max dose (efficacy), read-out: LXR beta act @ max dose (%)
T1 construct: purchased Invitrogen pv4658.pps
T1 sequence (P55055 222-460 limits assumed): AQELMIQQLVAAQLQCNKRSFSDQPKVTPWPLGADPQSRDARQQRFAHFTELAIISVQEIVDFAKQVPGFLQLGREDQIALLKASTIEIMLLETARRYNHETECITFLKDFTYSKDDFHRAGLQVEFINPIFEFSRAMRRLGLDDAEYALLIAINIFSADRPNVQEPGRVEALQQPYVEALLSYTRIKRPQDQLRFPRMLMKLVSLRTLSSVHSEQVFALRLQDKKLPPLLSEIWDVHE
Method in brief: (§1)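 TR-FRET signal reflects compound-driven recruitment of a fluorescein-tagged coactivator peptide to the GST-tagged LBD, detected via terbium-labelled anti-GST antibody after incubation at room temperature. Potency given as inflection point; efficacy as Emax versus T0901317.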

[2] = target: T2, GST tagged LXRalpha LBD (ligand binding domain) (Homo sapiens, UniProt Q13133); assay: LanthaScreen TR-FRET Liver X Receptor Coactivator Assay, LXR alpha-LBD; type: biochemical; conditions: relative to reference T0901317; for EC50: Inflection Point (potency), co-activator recruitment, read-out: LXR alpha IP; for Emax: activity at max dose (efficacy), read-out: LXR alpha act @ max dose (%)
T2 construct: purchased Invitrogen pv4655
T2 sequence (Q13133 209-447 limits assumed): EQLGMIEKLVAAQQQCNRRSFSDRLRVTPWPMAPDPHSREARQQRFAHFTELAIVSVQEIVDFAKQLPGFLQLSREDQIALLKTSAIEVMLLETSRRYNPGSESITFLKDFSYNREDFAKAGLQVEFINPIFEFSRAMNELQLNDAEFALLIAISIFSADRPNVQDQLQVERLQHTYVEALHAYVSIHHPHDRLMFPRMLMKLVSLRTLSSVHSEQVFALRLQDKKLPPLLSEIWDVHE
Method in brief: as §1

Q: Which results are given for `CN(C)C(=O)c1ccc(N2CCC(C3CCN(C(=O)C(C)(C)c4ccccc4F)CC3)CC2)cc1Cl` [Example A-80, 2-chloro-4-{1′-[2-(2-fluorophenyl)-2-methylpropanoyl]-4,4′-bipiperidin-1-yl}-N,N-dimethylbenzamide]?
A: EC50 [1]: 0.031 µM; Emax [1]: 116%; EC50 [2]: 1.17 µM; Emax [2]: 67%

Q: With `COCCCN(C)C(=O)c1ccc(N2CCC(C3CCN(C(=O)[C@](O)(c4ccccc4)C(F)(F)F)CC3)CC2)cc1Cl` [Example E-48, 2-chloro-N-(3-methoxyproply)-N-methyl-4-{1′-[(2R)-3,3,3-trifluoro-2-hydroxy-2-phenylpropanoyl]-4,4′-bipiperidin-1-yl}benzamide] as the molecule, how does the EC50 [1] read?
A: 0.175 µM

Q: And the Emax [1]?
A: 106%

Q: And the EC50 [2]?
A: 1.72 µM

Q: What about the Emax [2] of the same molecule?
A: 26%

Q: Which results are given for `O=C(c1ccc(N2CCC(C3CCN(C(=O)[C@](O)(c4ccccc4)C(F)(F)F)CC3)CC2)cc1Cl)N1CCC(O)C1` (stereo partly drawn) [Example E-24, 1-[(2-chloro-4-{1′-[(2R)-3,3,3-trifluoro-2-hydroxy-2-phenylpropanoyl]-4,4′-bipiperidin-1-yl}phenyl)carbonyl]pyrrolidin-3-ol]?
A: EC50 [1]: 0.323 µM; Emax [1]: 76%; EC50 [2]: 3.09 µM; Emax [2]: 27%

Q: `O=C(c1ccc(N2CCC(C3CCN(C(=O)[C@](O)(c4ccccc4)C(F)(F)C(F)(F)F)CC3)CC2)cc1Cl)N1CCCC1` [Example E-17] was tested. Which EC50 [1] did it give?
A: 0.105 µM

Q: What about the Emax [1] of the same molecule?
A: 130%

Q: What about the EC50 [2] of the same molecule?
A: 0.76 µM

Q: What about the Emax [2] of the same molecule?
A: 33%

Q: Which results are given for `CCCN(C)C(=O)c1ccc(N2CCC(C3CCN(C(=O)[C@](O)(c4ccccc4)C(F)(F)F)CC3)CC2)cc1Cl` [Example E-61, 2-chloro-N-methyl-N-propyl-4-{1′-[(2R)-3,3,3-trifluoro-2-hydroxy-2-phenylpropanoyl]-4,4′-bipiperidin-1-yl}benzamide]?
A: EC50 [1]: 0.1 µM; Emax [1]: 94%; EC50 [2]: 1.28 µM; Emax [2]: 29%

Q: For `CN(C)C(=O)c1ccc(N2CCC(C3CCN(C(=O)C4(c5ccccc5Cl)CC4)CC3)CC2)cc1Cl` [Example A-86, 2-chloro-4-(1′-{[1-(2-chlorophenyl)cyclopropyl]carbonyl}-4,4′-bipiperidin-1-yl)-N,N-dimethylbenzamide], which EC50 [1] is on record?
A: 0.016 µM

Q: What about the Emax [1] of the same molecule?
A: 112%

Q: And the EC50 [2]?
A: 0.671 µM

Q: What about the Emax [2] of the same molecule?
A: 73%

Q: Which EC50 [1] does the source give for `CN(C)C(=O)c1ccc(N2CCC(C3CCN(C(=O)C(O)(C4CCC4)C(F)(F)F)CC3)CC2)cc1Cl` (stereo not shown) [Example A-10, 2-chloro-4-[1′-(2-cyclobutyl-3,3,3-trifluoro-2-hydroxypropanoyl)-4,4′-bipiperidin-1-yl]-N,N-dimethylbenzamide] here?
A: 0.03 µM

Q: What about the Emax [1] of the same molecule?
A: 109%

Q: What about the EC50 [2] of the same molecule?
A: 0.756 µM

Q: What about the Emax [2] of the same molecule?
A: 59%

Q: Which results are given for `CN(Cc1noc(C2CC2)n1)C(=O)c1ccc(N2CCC(C3CCN(C(=O)[C@](O)(c4ccccc4)C(F)(F)F)CC3)CC2)cc1Cl` [Example E-54, 2-chloro-N-[(5-cyclopropyl-1,2,4-oxadiazol-3-yl)methyl]-N-methyl-4-{1′-[(2R)-3,3,3-trifluoro-2-hydroxy-2-phenylpropanoyl]-4,4′-bipiperidin-1-yl}benzamide]?
A: EC50 [1]: 0.035 µM; Emax [1]: 93%; EC50 [2]: 1.46 µM; Emax [2]: 55%

Q: `CC(C)C(O)(C(=O)N1CCC(C2CCN(c3ccc(C(=O)N4CCOCC4)c(Cl)c3)CC2)CC1)C(F)(F)F` (stereo not shown) [Example E-8, 2-({1′-[3-chloro-4-(morpholin-4-ylcarbonyl)phenyl]-4,4′-bipiperidin-1-yl}carbonyl)-1,1,1-trifluoro-3-methylbutan-2-ol] was tested. Which EC50 [1] did it give?
A: 0.149 µM

Q: What about the Emax [1] of the same molecule?
A: 65%

Q: And the EC50 [2]?
A: 1.19 µM

Q: What about the Emax [2] of the same molecule?
A: 29%

Q: What does the source list for `CC(C)C(O)(C(=O)N1CCC(C2CCN(c3ccc(C(=O)N(C)C)c(Cl)c3)CC2)CC1)C1CC1` (stereo not shown) [Example A-110, 2-chloro-4-[1′-(2-cyclopropyl-2-hydroxy-3-methylbutanoyl)-4,4′-bipiperidin-1-yl]-N,N-dimethylbenzmamide]?
A: EC50 [1]: 0.052 µM; Emax [1]: 127%; EC50 [2]: 1.04 µM; Emax [2]: 69%
